Assay [1] can be described thus: Late stage counterscreen for inhibitors of Trypanosoma brucei methionyl tRNA synthetase (MetRS): Luminescence-based cell-based high throughput dose response assay to identify compounds that are cytotoxic to Jurkat human T lymphocyte cells. It counts as functional. Background: The purpose of a counterscreen is to sort out artefacts and off-target activity.
For assay [2], the target named is T1, NAD-dependent protein deacylase sirtuin-5, mitochondrial (Homo sapiens, UniProt Q9NXA8). In words: SIRT5 desuccinylase inhibitors, dose response, biochemical, fluorescence imaging, cherry-pick, set 5 (AID 720591).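 Note: desuccinylation of succinyl peptide AMC substrate read as fluorescence after trypsin release; potency of inhibitors that lower fluorescence and may act on trypsin instead.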
Assay [3] in a line: human group III sPLA2 inhibitors, dose response, biochemical, QFRET, IC50 (AID 743457).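 Note: green fluorescence rise as the enzyme cleaves BODIPY PC-A2 in liposomes; potency for inhibition of the enzyme.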
Assay [4] addresses Intestinal-type alkaline phosphatase (Homo sapiens, UniProt P09923). In words: human intestinal alkaline phosphatase activators, dose response, biochemical, luminescence, uHTS hits (AID 463120). In kind it is functional.
Assay [5] addresses T2, Ubiquitin-conjugating enzyme E2 N (Homo sapiens, UniProt P61088).
T2 sequence (P61088 whole entry): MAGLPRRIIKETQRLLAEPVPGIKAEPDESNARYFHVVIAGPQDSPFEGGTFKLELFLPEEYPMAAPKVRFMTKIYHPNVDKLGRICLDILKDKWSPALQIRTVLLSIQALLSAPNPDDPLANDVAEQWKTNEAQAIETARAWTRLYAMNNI
In kind it is functional.

The target of assay [6] is Potassium channel subfamily K member 9 (Homo sapiens, UniProt Q9NPC2). As to the kind of experiment: TASK3 (KCNK9) channel inhibitors, thallium flux, SAR follow-up, selectivity assay for TASK1 inhibitor project, cell-based, FluxOR thallium flux, concentration-response (AID 652211).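 Note: potency is for inhibitors of the channel.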 It counts as functional.
Assay [7] deals with Potassium channel subfamily K member 3 (Homo sapiens, UniProt O14649). As to the kind of experiment: TASK1 (KCNK3) potassium channel inhibitors, SAR follow-up, CHO cells, FluxOR thallium flux (AID 652212). It counts as functional.
Another assay addresses T3, Caspase-3 (Homo sapiens, UniProt P42574).
T3 sequence (P42574 whole entry): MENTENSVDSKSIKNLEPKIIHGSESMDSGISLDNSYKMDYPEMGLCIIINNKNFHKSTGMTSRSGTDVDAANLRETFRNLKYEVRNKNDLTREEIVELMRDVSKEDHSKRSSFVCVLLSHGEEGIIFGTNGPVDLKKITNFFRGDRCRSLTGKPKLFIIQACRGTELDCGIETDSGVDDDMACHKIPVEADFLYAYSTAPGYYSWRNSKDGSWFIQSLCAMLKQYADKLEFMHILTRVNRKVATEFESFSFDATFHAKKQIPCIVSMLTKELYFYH
As to the kind of experiment: caspase-3 enzyme inhibitors, selectivity check, dose response, selectivity assay for caspase-6 allosteric inhibitor project, biochemical, fluorescence, cherry-picked samples (AID 743291).

For a further assay, the target named is Caspase-6 (Homo sapiens, UniProt P55212). In words: human caspase-6 inhibitors, dose response, biochemical, VEID-R110 fluorescence, cherry-pick (AID 720632).
Assay [8] concerns the target T4, Polyadenylate-binding protein 1 (Homo sapiens, UniProt P11940). As to the kind of experiment: PABP1 MLLE–PAM2 binding inhibitor potency, dose response, biochemical, fluorescence polarization, FITC-PAM2 peptide (AID 602259). Particulars: read-out: IC50_Mean. It counts as functional. Background: In fluorescence polarisation assays a small probe gives low polarisation when free and higher when bound to something large.

Another assay has as its target Caspase-7 (Homo sapiens, UniProt P55210). As to the kind of experiment: human caspase-7 inhibitors, dose response, selectivity assay for caspase-6 inhibitor project, biochemical, DEVD-R110 fluorescence, cherry-pick (AID 743295). In kind it is […].
The target in another assay is T5, Protein skinhead-1 (Caenorhabditis elegans, UniProt P34707).
T5 sequence (P34707 whole entry): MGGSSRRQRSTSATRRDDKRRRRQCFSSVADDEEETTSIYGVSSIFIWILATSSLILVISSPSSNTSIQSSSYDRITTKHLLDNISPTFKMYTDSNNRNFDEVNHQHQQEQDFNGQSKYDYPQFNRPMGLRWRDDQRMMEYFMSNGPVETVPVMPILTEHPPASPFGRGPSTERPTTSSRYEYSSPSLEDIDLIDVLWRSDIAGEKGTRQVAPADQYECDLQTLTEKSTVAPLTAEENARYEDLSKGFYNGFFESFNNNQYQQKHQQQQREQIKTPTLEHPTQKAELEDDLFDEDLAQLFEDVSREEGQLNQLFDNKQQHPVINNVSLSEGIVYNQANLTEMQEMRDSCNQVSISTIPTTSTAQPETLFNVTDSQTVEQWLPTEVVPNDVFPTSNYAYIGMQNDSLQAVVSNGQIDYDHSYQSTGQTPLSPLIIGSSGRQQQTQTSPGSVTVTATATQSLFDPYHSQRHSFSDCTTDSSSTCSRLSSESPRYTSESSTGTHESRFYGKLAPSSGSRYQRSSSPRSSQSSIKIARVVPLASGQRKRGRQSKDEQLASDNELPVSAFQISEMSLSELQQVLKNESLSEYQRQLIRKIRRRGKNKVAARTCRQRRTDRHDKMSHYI
It counts as functional.

In a further assay the target is Caspase-9 (Homo sapiens, UniProt P55211). In words: caspase-9 enzyme inhibition, dose response, selectivity assay for caspase-6 inhibitor project, biochemical, fluorescence, plate reader, cherry-picked samples (AID 743293).
Assay [9] addresses T4, Polyadenylate-binding protein 1. As to the kind of experiment: PABP1 MLLE–PAM2 interaction inhibitors, dose response, miRNA deadenylation inhibitor project, biochemical, fluorescence polarization, Cy5-PAM2 peptide, secondary (AID 602260). Particulars: read-out: IC50_Mean. In kind it is functional.
The target of assay [10] is Tyrosyl-DNA phosphodiesterase 2 (Homo sapiens, UniProt O95551). In words: human TDP2 enzyme inhibitors, dose response, biochemical, epi absorbance, IC50 (AID 743297).
In a further assay the target is Caspase-8 (Homo sapiens, UniProt Q14790). In words: caspase-8 inhibition counter-screen, dose response, selectivity assay for caspase-6 inhibitor project, biochemical, Z-IETD-R110 fluorescence, cherry-picked samples (AID 743294).
For assay [11], the target named is T1, NAD-dependent protein deacylase sirtuin-5, mitochondrial. As to the kind of experiment: SIRT5 deacylase inhibitors, dose response, biochemical, fluorescence imaging, cherry-pick, set 6 (AID 720597).
Assay [12] in a line: non-specific cell cytotoxicity, dose response, cytotoxicity control for PAX8 inhibitor project, plate reader, dry powder samples (AID 743021). It counts as functional, cell-based.
The nature of assay [13]: inhibitors of PGC1a acetylation in cells, dose response, cell-based, cherry-picked samples (AID 720514).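 Note: potency may reflect raised or lowered acetylation signal.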 It counts as functional.
Assay [14] in a line: HepG2 cell cytotoxicity, dose response, cytotoxicity control, cherry-picked samples (AID 1159577). It counts as functional, cell-based.
Assay [15] in a line: P. falciparum Dd2 growth inhibitors, dose response, SYBR Green, cherry-picked samples (AID 1159567). In kind it is functional, cell-based.
Assay [16] is described as follows: cytotoxicity in OVCAR8 ovarian cancer cells, dose response, PAX8 project, cell-based, plate reader, dry powder samples (AID 743197). In kind it is functional. As to conditions: OVCAR-8.
Another assay addresses Paired box protein Pax-8 (Homo sapiens, UniProt Q06710). In words: inhibitors of PAX8-driven TPO luciferase reporter, dose response, RMG-I cells, cherry-pick (AID 687027).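 Note: luciferase reporter driven by Pax8 target thyroperoxidase promoter measured by SteadyGlo luminescence.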 In kind it is functional, cell-based. Background: Reporter assays use an easily measured gene product as a stand-in for the process of interest.
A short description of assay [17]: IGROV1 ovarian cancer cell cytotoxicity, dose response, PAX8 inhibitor project, plate reader, dry powder samples (AID 743043). It counts as functional, cell-based. As to conditions: IGROV-1.
Another assay addresses Kallikrein-7 (Homo sapiens, UniProt P49862). In words: Fluorescence Intensity-based biochemical primary high throughput dose response assay to identify activators of kallikrein-7 (K7) zymogen.

Consider eight molecules from ChEMBL document CHEMBL1201862, “PubChem BioAssay data set” (2004).

As usually defined, the AC50 is the midpoint of the concentration-response curve, whichever way the signal moves. In general, EC50 refers to the concentration at which the effect is half-maximal.

Activity calls are given as the source filed them.

T4 sequence (P11940 whole entry): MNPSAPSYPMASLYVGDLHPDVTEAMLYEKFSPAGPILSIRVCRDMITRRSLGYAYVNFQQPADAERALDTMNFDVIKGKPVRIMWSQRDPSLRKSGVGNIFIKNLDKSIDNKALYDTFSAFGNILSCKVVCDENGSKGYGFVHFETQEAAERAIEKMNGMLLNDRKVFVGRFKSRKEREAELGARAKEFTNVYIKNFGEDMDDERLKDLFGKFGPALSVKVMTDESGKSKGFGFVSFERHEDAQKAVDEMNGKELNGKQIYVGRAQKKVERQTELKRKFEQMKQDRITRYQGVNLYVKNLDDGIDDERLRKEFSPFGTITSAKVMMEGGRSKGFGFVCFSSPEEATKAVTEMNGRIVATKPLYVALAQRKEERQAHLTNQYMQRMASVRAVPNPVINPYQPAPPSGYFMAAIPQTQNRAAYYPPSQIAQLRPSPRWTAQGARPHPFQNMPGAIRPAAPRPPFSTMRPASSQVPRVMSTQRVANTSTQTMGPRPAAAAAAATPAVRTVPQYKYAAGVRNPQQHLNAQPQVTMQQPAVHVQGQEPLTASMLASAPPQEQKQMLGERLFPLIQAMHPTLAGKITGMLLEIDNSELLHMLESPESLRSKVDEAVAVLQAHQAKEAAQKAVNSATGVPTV
T1 sequence (Q9NXA8 whole entry): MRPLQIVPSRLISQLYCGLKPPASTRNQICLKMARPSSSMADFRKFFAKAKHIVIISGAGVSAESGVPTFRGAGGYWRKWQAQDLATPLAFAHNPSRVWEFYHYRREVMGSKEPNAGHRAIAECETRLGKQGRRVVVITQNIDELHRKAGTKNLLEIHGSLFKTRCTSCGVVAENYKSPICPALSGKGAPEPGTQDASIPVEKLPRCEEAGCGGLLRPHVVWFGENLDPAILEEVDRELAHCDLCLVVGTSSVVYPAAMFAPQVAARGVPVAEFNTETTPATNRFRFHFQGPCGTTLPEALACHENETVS
Chain of Potassium channel subfamily K member 9 (Q9NPC2 whole entry): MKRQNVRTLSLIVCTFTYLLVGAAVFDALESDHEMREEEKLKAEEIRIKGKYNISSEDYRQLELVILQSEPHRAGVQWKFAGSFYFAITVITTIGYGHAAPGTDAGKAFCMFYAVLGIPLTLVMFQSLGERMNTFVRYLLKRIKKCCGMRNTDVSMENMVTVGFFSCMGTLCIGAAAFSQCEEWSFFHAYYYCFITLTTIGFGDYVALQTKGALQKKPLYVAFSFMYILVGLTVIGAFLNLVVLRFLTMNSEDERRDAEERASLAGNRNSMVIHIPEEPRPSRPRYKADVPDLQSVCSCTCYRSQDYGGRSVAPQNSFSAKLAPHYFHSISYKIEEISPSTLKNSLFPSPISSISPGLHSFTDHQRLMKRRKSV
Chain of Caspase-7 (P55210 24-198 limits assumed): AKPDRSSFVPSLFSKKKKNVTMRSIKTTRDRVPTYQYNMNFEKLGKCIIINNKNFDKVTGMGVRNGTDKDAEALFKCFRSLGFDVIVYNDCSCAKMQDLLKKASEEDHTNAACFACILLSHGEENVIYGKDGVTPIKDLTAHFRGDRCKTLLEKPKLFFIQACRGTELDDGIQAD
Chain of Caspase-7 (P55210 207-303 limits assumed): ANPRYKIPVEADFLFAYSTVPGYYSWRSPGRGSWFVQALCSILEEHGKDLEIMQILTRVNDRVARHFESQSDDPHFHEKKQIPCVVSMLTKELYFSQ
Chain of Intestinal-type alkaline phosphatase (P09923 whole entry): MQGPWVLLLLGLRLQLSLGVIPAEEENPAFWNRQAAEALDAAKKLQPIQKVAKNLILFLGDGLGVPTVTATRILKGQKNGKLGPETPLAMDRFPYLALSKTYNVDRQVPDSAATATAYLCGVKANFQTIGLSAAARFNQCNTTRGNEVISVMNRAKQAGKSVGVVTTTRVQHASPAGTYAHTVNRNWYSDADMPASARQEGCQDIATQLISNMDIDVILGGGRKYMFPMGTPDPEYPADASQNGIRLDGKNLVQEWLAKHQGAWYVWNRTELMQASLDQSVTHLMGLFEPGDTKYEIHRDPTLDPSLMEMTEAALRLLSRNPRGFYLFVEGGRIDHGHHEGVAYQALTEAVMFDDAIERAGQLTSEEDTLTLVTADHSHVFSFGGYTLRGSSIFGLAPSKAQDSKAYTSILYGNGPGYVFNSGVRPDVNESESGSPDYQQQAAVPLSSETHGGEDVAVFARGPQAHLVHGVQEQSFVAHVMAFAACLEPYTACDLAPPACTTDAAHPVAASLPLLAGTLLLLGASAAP
Chain of Caspase-9 (P55211 1-315 limits assumed): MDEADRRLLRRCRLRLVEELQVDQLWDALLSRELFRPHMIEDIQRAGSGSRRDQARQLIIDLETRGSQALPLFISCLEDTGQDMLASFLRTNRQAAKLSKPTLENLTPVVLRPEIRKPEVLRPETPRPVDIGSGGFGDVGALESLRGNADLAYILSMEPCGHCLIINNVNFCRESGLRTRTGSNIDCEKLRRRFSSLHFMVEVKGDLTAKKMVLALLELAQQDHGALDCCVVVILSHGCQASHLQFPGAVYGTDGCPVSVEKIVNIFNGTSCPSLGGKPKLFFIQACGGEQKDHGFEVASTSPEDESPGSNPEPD
Chain of Caspase-9 (P55211 331-416 limits assumed): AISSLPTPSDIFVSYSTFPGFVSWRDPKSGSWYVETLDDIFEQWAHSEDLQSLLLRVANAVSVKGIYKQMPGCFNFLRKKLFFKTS
Chain of Potassium channel subfamily K member 3 (O14649 whole entry): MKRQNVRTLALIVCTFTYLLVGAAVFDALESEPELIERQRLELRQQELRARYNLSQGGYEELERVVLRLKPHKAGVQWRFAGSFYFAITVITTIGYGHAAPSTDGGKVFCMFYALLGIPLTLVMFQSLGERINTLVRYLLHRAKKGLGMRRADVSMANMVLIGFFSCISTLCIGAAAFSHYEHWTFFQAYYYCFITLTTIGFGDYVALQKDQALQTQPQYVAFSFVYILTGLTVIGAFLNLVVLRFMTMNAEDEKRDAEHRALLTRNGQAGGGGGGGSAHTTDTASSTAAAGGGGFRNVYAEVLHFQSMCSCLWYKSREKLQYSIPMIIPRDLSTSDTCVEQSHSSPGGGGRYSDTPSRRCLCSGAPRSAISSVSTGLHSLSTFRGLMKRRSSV
Chain of Paired box protein Pax-8 (Q06710 whole entry): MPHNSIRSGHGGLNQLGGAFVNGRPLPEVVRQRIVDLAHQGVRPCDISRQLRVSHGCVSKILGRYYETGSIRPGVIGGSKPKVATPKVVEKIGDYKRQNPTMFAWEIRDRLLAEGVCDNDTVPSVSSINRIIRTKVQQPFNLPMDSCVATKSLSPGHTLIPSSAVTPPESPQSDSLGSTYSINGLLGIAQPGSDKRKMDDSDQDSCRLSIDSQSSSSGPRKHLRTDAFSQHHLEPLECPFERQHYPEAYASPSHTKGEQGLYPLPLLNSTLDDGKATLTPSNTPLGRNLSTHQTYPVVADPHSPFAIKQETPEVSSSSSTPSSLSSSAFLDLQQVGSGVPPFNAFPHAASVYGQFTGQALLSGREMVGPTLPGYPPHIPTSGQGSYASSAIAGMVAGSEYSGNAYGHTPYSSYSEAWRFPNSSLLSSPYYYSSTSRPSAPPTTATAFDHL
Chain of Kallikrein-7 (P49862 whole entry): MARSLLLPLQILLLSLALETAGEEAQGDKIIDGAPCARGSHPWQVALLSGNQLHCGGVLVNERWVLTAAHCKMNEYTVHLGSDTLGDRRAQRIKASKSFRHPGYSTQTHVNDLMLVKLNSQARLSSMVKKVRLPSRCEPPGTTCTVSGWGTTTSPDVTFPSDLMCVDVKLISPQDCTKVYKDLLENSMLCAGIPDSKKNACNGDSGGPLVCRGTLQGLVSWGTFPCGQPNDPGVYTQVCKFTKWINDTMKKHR
Chain of Caspase-6 (P55212 24-179 limits assumed): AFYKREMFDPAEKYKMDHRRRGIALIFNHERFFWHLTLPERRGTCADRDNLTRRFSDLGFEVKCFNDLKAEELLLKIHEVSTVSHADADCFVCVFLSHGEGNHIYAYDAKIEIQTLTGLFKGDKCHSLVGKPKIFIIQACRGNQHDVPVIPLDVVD
Chain of Caspase-6 (P55212 194-293 limits assumed): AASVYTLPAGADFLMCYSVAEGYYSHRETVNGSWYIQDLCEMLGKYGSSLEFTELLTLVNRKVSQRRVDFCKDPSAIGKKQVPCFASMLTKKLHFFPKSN
Chain of Tyrosyl-DNA phosphodiesterase 2 (O95551 whole entry): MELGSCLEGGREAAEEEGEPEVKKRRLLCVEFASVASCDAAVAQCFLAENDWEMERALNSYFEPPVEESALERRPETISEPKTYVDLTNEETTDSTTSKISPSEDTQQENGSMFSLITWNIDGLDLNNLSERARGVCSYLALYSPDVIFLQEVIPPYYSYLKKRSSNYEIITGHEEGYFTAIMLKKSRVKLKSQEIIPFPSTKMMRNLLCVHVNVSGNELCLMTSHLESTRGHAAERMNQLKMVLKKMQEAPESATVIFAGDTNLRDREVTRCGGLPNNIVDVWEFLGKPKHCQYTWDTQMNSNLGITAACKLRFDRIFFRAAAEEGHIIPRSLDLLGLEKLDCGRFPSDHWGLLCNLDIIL
Chain of Caspase-8 (Q14790 217-374 limits assumed): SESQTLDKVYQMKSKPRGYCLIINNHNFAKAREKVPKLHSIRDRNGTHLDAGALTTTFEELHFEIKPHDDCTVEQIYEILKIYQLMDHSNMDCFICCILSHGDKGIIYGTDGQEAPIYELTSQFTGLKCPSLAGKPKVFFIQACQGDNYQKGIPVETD
Chain of Caspase-8 (Q14790 385-479 limits assumed): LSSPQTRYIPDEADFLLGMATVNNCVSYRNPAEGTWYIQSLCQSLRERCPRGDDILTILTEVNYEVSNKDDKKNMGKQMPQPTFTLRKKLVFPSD

With `O=C(NCc1nc2ccccc2[nH]1)C1=C[C@@H](c2ccc3c(c2)OCO3)C[C@@H](OCCCCO)O1`, in assay [1], the IC50 was > 83.3 µM (inactive).

Regarding `COc1ccc(-c2nnn(CC(=O)N(Cc3ccco3)C(C(=O)NCC3CCCO3)c3ccco3)n2)cc1` (stereo not given), the AC50 in assay [2] was > 30 µM (inactive).

For `COc1ccc(NC(S)=NNC(=O)c2nnn(-c3ccccc3)c2C)cc1`, the IC50 in assay [3] is > 122 µM (inactive); in [5], > 20 µM (inactive). Moreover, the EC50 in assay [4] was 14.2 µM (active).

For `COc1ccccc1NC(=O)c1cccc(NC(=O)CC2CCCC2)c1`, the IC50 in [6] is 2.63 µM (active); in [7] it was 0.086 µM (active).

On to `Cn1c(=O)c2c(-c3ccccc3)n(-c3ccc(N)cc3)cc2n(C)c1=O`, for which the concentration at half-maximal activity (AC50) on Caspase-3 is 19.2 µM (active); at Caspase-6 it was 1.07 µM (active); at Caspase-7, 8.62 µM (active); on Caspase-9, 69.8 µM (active); at Caspase-8 it was > 70 µM (inactive). In addition, the IC50 is 38.4 µM (inactive) in [8], 73.6 µM (inactive) on Protein skinhead-1, > 66 µM (inactive) in assay [9] and > 128 µM (inactive) in [10].

Take `Cc1ccc(S(=O)(=O)N(C)C[C@@H]2OCCCC[C@@H](C)Oc3ccc(NS(=O)(=O)c4ccc(Cl)cc4)cc3C(=O)N([C@@H](C)CO)C[C@H]2C)cc1`: the AC50 in assay [11] was > 30 µM (inactive).

Turning to `COc1ccc(-c2ccc([C@@H]3[C@@H]4CN(Cc5cc(OC)cc(OC)c5)C[C@H]3N4)cc2)cc1`, the AC50 in [12] is 11.8 µM (active); in [13], 10.5 µM (active); in assay [14] it was 6.38 µM (active); in assay [15], 2.24 µM (active); in assay [16], 23.8 µM (active); at Paired box protein Pax-8 it was 10.1 µM (active). Moreover, in [17], the AC50 was 21.5 µM (active).

Regarding `Cc1nc2ccc(NC(=O)N3CCCCC3)cc2nc1C`, the EC50 at Kallikrein-7 was 5.48 µM (active).
